Results from ChEMBL document CHEMBL5465560, “Selectivity Literature for EUbOPEN Chemogenomic Library” (2024).

Legend:
[1] = molecular target: Calcium/calmodulin-dependent protein kinase type 1G (Homo sapiens) (UniProt Q96NX5); test: Selectivity interaction (KinomeScan (DiscoverX)) EUB0000229b CAMK1G; details: at 10 µM
[2] = molecular target: Eukaryotic translation initiation factor 2-alpha kinase 1 (Homo sapiens) (UniProt Q9BQI3); test: Selectivity interaction (KinomeScan (DiscoverX)) EUB0000655a EIF2AK1; details: at 10 µM
Eukaryotic translation initiation factor 2-alpha kinase 1 (Homo sapiens), sequence (Q9BQI3 whole entry): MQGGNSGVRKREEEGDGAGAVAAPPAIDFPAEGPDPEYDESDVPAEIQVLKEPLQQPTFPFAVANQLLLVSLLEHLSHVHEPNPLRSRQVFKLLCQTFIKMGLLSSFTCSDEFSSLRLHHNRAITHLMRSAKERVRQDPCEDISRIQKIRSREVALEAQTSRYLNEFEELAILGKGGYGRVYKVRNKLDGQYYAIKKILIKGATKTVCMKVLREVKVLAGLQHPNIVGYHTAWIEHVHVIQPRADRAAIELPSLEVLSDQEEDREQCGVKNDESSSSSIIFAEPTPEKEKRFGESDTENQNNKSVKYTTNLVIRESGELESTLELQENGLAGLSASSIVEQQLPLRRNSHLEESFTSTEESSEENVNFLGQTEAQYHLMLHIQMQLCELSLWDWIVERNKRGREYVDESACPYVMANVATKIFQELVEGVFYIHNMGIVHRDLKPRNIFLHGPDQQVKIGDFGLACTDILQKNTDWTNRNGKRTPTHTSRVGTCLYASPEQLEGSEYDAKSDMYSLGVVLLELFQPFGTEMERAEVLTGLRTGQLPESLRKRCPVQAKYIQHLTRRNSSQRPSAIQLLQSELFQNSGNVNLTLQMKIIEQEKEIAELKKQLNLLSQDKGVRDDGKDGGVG

[3] = molecular target: T1, Bromodomain-containing protein 1 (Homo sapiens) (UniProt O95696); test: Selectivity interaction (Human bromodomain panel (DSF assay)) EUB0000233b BRD1
T1 sequence (whole entry): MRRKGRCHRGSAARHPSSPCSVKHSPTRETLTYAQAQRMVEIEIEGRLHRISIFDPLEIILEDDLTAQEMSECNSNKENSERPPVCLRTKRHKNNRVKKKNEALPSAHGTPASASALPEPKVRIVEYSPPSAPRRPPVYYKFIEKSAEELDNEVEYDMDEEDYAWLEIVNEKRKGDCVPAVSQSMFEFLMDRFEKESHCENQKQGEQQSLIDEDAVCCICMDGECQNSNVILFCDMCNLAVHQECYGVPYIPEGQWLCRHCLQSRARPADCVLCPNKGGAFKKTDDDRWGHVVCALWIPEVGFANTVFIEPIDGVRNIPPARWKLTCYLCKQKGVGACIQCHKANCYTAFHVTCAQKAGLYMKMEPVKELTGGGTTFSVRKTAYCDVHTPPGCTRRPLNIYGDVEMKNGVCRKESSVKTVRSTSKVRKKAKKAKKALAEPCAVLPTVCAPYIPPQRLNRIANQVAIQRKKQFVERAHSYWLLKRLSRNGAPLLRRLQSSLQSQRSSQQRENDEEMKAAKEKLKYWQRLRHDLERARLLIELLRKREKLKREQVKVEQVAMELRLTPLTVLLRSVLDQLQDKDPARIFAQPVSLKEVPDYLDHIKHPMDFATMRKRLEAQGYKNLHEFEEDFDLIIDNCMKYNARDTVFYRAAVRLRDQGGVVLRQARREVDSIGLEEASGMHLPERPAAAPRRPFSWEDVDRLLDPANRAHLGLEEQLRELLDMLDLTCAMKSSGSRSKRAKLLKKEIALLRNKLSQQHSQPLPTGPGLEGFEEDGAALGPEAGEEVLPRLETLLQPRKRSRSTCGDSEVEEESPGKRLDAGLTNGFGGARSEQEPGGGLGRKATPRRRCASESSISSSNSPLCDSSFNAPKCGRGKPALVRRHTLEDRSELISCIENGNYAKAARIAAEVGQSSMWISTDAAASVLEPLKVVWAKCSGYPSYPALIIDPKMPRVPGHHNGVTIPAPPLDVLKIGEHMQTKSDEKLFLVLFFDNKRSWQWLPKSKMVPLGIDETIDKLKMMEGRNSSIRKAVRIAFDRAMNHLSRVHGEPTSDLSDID

[4] = molecular target: T2, Kinase suppressor of Ras 1 (Homo sapiens) (UniProt Q8IVT5); test: Selectivity interaction (Kinase panel (KiNativ target engagement assay in Jurkat cells)) EUB0001635a KSR1; format: cell-based; details: at 1 µM
T2 sequence (whole entry): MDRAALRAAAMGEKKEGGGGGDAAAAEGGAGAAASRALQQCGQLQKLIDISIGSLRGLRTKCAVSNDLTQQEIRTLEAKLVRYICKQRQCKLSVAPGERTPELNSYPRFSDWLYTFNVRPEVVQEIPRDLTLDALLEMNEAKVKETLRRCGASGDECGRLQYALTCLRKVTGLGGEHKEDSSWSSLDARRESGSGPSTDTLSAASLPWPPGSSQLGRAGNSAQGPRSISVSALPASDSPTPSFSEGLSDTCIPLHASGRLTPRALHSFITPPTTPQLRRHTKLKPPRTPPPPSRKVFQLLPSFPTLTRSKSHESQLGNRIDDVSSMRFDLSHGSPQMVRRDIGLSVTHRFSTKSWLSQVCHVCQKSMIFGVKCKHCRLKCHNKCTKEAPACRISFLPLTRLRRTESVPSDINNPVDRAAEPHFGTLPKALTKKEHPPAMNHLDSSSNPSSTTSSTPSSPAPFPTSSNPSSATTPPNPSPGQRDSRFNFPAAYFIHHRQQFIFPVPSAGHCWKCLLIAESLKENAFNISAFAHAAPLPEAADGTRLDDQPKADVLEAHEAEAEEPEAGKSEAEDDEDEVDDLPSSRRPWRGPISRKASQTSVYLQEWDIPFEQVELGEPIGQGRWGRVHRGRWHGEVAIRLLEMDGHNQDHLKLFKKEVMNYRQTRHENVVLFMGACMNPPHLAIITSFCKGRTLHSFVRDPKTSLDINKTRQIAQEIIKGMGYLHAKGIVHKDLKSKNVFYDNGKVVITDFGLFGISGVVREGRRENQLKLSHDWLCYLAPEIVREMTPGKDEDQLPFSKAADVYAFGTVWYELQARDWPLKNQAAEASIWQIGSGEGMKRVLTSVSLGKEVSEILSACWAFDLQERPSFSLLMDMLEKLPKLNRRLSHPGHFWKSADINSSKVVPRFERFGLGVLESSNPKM

[5] = molecular target: LIM domain kinase 1 (Homo sapiens) (UniProt P53667); test: Selectivity interaction (KinomeScan (DiscoverX)) EUB0000666a LIMK1; details: at 10 µM
LIM domain kinase 1 (Homo sapiens), sequence (P53667 whole entry, looked up, the tested form may be a part): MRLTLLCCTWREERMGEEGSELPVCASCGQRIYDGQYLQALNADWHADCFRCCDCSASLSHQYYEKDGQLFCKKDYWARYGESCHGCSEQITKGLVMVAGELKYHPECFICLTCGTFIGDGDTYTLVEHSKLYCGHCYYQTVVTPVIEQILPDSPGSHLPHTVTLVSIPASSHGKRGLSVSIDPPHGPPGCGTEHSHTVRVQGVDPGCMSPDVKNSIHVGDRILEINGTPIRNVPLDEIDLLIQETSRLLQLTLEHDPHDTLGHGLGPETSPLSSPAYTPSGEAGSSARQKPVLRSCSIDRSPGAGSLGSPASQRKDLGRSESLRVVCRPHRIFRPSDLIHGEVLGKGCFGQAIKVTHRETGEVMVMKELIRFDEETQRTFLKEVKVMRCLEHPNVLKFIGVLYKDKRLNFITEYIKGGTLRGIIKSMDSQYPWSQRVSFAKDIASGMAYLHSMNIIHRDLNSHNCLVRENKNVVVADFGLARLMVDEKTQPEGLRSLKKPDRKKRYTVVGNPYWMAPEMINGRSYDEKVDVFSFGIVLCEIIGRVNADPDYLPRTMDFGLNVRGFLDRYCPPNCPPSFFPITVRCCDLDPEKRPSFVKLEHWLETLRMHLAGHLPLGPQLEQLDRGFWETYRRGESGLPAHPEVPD

[6] = molecular target: T3, 3-phosphoinositide-dependent protein kinase 1 (Homo sapiens) (UniProt O15530); test: Selectivity interaction (KinomeScan (DiscoverX)) EUB0000607a PDPK1; details: at 10 µM
T3 sequence (whole entry): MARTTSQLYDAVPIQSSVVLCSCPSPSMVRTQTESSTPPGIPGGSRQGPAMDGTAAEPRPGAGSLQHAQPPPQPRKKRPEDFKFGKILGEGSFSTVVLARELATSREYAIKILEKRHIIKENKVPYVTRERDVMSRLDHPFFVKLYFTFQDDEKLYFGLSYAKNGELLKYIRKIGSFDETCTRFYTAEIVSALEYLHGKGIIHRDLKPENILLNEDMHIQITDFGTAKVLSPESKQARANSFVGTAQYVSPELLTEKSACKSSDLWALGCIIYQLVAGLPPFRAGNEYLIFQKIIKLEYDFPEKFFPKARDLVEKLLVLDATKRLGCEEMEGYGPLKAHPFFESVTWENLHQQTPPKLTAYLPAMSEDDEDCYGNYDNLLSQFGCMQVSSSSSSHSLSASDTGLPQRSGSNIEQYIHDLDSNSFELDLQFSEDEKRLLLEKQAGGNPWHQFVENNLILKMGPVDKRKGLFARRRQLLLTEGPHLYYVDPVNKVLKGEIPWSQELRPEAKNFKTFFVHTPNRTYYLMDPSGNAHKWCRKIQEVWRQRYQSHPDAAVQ

[7] = molecular target: Receptor-interacting serine/threonine-protein kinase 2 (Homo sapiens, UniProt O43353); test: Selectivity interaction (Ambit KINOMEscan and KiNATiv profiling in Jurkat cells) EUB0000090b RIPK2; format: cell-based; details: at 1 µM
Receptor-interacting serine/threonine-protein kinase 2, sequence (O43353 whole entry): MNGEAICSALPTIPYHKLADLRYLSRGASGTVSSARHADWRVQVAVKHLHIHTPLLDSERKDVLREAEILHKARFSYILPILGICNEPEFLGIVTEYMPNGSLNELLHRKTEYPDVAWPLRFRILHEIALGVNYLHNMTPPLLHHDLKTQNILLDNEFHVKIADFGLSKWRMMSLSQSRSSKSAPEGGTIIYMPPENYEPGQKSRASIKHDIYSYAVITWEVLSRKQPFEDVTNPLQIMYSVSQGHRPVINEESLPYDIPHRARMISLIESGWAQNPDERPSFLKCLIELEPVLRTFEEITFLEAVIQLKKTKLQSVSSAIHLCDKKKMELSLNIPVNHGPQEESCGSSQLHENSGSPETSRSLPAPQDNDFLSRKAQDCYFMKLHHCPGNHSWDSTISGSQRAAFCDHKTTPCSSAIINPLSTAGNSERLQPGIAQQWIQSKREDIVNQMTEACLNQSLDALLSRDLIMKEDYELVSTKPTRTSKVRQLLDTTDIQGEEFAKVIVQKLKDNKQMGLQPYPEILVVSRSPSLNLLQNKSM

[8] = molecular target: Tyrosine-protein kinase Fer (Homo sapiens) (UniProt P16591); test: Selectivity interaction (Kinase screening (Nanosyn)) EUB0000604a FER
Tyrosine-protein kinase Fer (Homo sapiens), sequence (P16591 whole entry, looked up): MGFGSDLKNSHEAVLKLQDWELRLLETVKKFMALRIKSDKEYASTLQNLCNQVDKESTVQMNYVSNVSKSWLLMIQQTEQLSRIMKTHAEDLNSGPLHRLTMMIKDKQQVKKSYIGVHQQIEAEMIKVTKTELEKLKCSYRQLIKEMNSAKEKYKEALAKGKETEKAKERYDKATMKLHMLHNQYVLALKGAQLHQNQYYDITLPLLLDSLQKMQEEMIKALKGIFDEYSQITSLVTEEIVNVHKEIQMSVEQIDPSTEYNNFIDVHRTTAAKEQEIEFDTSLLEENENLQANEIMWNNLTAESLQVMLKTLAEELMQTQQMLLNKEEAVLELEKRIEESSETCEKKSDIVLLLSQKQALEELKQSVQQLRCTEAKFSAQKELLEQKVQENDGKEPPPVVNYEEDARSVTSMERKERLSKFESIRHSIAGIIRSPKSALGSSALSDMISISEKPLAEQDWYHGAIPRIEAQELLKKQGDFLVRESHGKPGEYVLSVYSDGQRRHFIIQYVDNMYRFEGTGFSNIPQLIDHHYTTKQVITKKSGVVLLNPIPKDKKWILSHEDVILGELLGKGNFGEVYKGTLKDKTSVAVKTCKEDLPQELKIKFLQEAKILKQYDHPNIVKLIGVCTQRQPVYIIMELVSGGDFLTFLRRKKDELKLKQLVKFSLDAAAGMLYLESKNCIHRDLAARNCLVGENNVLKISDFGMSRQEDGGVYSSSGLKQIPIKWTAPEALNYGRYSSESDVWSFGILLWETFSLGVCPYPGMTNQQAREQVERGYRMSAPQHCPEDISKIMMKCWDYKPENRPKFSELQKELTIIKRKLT

Calcium/calmodulin-dependent protein kinase type 1G (Homo sapiens), sequence (Q96NX5 whole entry): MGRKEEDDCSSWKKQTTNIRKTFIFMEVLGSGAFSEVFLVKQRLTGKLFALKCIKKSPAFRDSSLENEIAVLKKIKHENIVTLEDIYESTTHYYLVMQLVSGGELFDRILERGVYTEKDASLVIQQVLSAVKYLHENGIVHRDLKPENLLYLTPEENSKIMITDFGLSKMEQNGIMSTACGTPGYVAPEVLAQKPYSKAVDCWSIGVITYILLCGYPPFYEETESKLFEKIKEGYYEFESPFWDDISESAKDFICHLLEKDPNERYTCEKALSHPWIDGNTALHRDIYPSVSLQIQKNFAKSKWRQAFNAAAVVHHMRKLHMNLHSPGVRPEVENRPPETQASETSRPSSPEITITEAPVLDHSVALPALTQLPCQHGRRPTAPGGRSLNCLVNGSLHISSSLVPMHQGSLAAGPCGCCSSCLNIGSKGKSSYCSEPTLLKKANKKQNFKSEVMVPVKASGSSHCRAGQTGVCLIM

## COc1cc(N(C)c2ccnc3ccc(C(F)(F)F)cc23)cc(OC)c1OC
[1]
  % binding: 95%

## CN(C)CCOc1ccc(-c2nc(-c3ccncc3)c(-c3ccc4c(c3)CC/C4=N\O)[nH]2)cc1
[2]
  % of control: 58%

## CN(C)CCCOc1ccc(-c2cc(NCCCn3cccn3)nc(S(C)(=O)=O)n2)cc1
[3]
  dTM: < 2 K

## C=CC(=O)Nc1ccc(C(=O)Nc2[nH]nc3c2CN(C(=O)N[C@H](CN(C)C)c2ccccc2)C3(C)C)cc1
[4]
  % of engagement: -1.6%

## O=C(NOC[C@H](O)CO)c1ccc(F)c(F)c1Nc1ccc(I)cc1F
[5]
  % of control: 68%

## CNC(=O)Nc1ccc(-c2nc(N3CC4CCC(C3)O4)c3cnn(C4CCC5(CC4)OCCO5)c3n2)cc1
[6]
  % of control: 76%

## CN(C)C/C=C/C(=O)Nc1ccc(C(=O)N2CCCC(Nc3ncc(Cl)c(-c4c[nH]c5ccccc45)n3)C2)cc1 (stereo not drawn)
[7]
  % of control: 88%

## Cc1cnc(Nc2ccc(F)cc2Cl)nc1-c1c[nH]c(C(=O)N[C@H](CO)c2cccc(Cl)c2)c1
[8]
  % of inhibition: 3%
